Results: patent US6984729B1, “Oligonucleotides specific for hepatitis B virus” (priority 1995, dated 2006)
Strand notation (5' to 3'): a small letter for the sugar, then the base; units joined by * are phosphorothioate-linked, units joined directly phosphodiester-linked; [ ] holds rarer units or linkages, { } end groups; capitals alone tell only the bases. d = 2'-deoxy (DNA)

Key:
[1] = system: In vitro transcribed HBV RNA (adw strain); test: RNase H cleavage assay with contiguous oligodeoxynucleotide phosphorothioates (FIG. 2); format: biochemical, hepatitis B virus; conditions: end-labelled HBV RNA (adw), regions found with random 20mer library
Description: To determine whether an oligonucleotide of the invention is capable of successfully hybridizing to its target, an RNase H assay was performed (Frank et al. (1993) Proc. Int. Conf. Nucleic Acid Med. Applns. 1:4.14(abstract)). This assay is useful when a region of at least four contiguous nucleotides of the oligonucleotide is DNA and the target is RNA. Hybridization of the DNA portion of the oligonucleotide to the RNA target is identified by cleavage at that site by RNase H.
In vitro transcribed HBV RNA (adw strain) was probed for sites accessible to oligonucleotide hybridization using a randomized library of 20 base oligodeoxynucleotides (approximately […]). Hybridization to the RNA was detected by RNase H cleavage of the end-labelled transcript. Three regions were identified by this assay. One region was in the 5′ untranslated region, between 113 and 70 bases upstream from the core initiator, and two regions were in the coding regionfor core, between 78 and 174 bases downstream from the core initiator. Contiguous oligodeoxynucleotide phosphorothioates were prepared against these regions and their ability to activate RNase H cleavage of the transcript measured.
The plasmid pHBVE+was generated by subcloning a StuI, BamHI fragment from the plasmid pAM6 (ATCC Ac. No. 45020, American Type Culture Collection, Rockville, Md.), representing HBV subtype adw nt 1701-nt 34 (GenBank accession # V00866) (Ono et al. (1983) Nucleic Acids Res. 11:1747–1757), into pBluescript II SK(+) (Stratagene, La Jolla, Calif.). […]
In 9 μl 1× RNase H buffer (40 mM Tris-HCl pH 7.4, 4 mM MgCl2, 1 mM DTT), 20–100 nM labelled RNA and 100 nM oligonucleotides were preincubated for 15 min at 37° C. […] The reactions were quenched and analyzed as described above.
Quantitation of the cleavage products was performed using software supplied with the Phosphorimager (Molecular Dynamics, Sunnyvale, Calif., or Bio-Rad Laboratories, Hercules, Calif.). “Counts” were determined by drawing a box around the band of interest and subtracting the background determined with a box drawn nearby. […]

[2] = system: HBV genomes in the supernatants from HepG2.2.15 cells; test: Kinetic PCR HBV anti-viral assay on supernatants from HepG2.2.15 cells; format: cell-based, hepatitis B virus; conditions: copy number of HBV genomes in HepG2.2.15 supernatants, day 10
Description: In addition to Southern hybridizations, kinetic PCR was performed to assay the supernatants from the HepG2.2.15 cells. This procedure was carried out as described by Higuchi et al. (Biotechnol. (1993) 11:1026–1030). All PCRs were carried out with two sets of external controls which consisted of a dilution series of a known concentration of plasmid DNA that contained the HBV core gene amplified with the same primer set. These controls generated a standard curve that was used to calculate the copy number of HBV genomes in the supernatants from cells exposed to the various dilutions of compound.
The anti-viral assay was performed using HepG 2.2.15 cells (Sells et al. ([…]) Proc. Natl. Acad. Sci. (USA) 84:1005–1009) seeded at a density of 1×10^5 per well in 24 well plates. The cells were grown to confluence and allowed to stabilize for 2–3 days in RPMI media (supplemented with 10% fetal calf serum (FCS), 2 mM glutamine and penstrep (Life Technologies Ltd., Paisley, Scotland) prior to the addition of the oligonucleotide (defined as day 0). Six dilutions (10, 5, 1, 0.5, 0.1, and 0 μM) were set up in duplicate for each of the antisense oligonucleotides. In each assay run, the nucleoside analog, β-L-(2R,5S)-1,3 oxathiolanyl cytosine (3TC) (Glaxo, Greenford, U.K.) was included as positive control at 0.5, 0.1, 0.075, 0.05, and 0.01 and 0 μM in duplicate. Oligonucleotide was added to 1 ml of RPMI media (supplemented with 3% FCS, 2 mM glutamine and penstrep) at each of the indicated dilutions. At days 2, 4 and 7, the old media was removed and replaced with fresh media containing compound. At day 10, the supernatants were harvested, clarified by low speed centrifugation, prior to the addition of Triton X100 (Sigma, St. Louis, Mo.) and tri-n-butyl phosphate to give a final concentration of 1%. The samples were then heated to 70° C. for 20 minutes to disrupt the viral particles.
Following this treatment, the viral particles were subject to analysis by kinetic PCR. The primers RJ407 (SEQ ID NO:51) and RJ431 (SEQ ID NO:52) were used to detect a 205 bp fragment of the core gene. Kinetic PCR was performed essentially as described by Higuchi et al. (Biotechnol. (1993) 11:1026–1030). Briefly, the PCR reactions were set up under standard conditions except that ethidium bromide was included at a concentration of 4 μg/ml. […] A kinetic PCR analysis was performed by plotting the average intensity of fluorescence from each PCR sample after each annealing/extension cycle against the cycle number. The original template concentration can be calculated by utilizing a standard fluorescence curve generated by templates of known concentration.

[3] = system: HBV subtype ayw polymerase gene-luciferase fusion construct; test: Firefly luciferase reporter gene assay in stably transfected HepG2 cells (pol-luciferase fusion); format: cell-based; conditions: versus random 20mer PS negative control, FIG. 9
Description: Oligonucleotides targeted to the polymerase translation initiation region were also tested in mammalian cells using a firefly luciferase reporter gene assay. The 35 nucleotide region spanning the translation start site of the HBV ayw polymerase gene from nt 2294–2328 was cloned 5′ to, and in frame with, the entire open reading frame of the firefly luciferase gene in the plasmid pGLori, to produce the plasmid pGLpol (FIG. 10). Transcription of this pol-luciferase gene fusion was placed under the control of the cytomegalovirus early gene promoter. Expression of the pol-luciferase fusion in mammalian cells was quantified in a luminometer by addition of luciferin substrate and ATP cofactor to cell lysates. In all cellular antisense assays, a random sequence 20mer phosphorothioate oligonucleotide (random 20mer PS) was used as a negative control. […]
Stably transfected HepG2 cells were seeded into 96 well plates. […] Cells were washed twice with Dulbecco's phosphate-buffered saline (PBS) and lysed in 50 μl cell lysis buffer (Analytical Luminescence Laboratory, San Diego, Calif.). Luciferase activity was measured in 20 μl lysate using Analytical Luminescence Laboratory substrates in a MicroLumat LB 96 P luminometer (EG&G Berthold, Nashua, N.H.).

Sequence	ability to activate RNase H cleavage of the transcript [1]	IC50 [2] [nM]	antisense activity on luciferase expression [3]
GAAAAAGTTGCATGGTGCTG (antisense dG*dA*dA*dA*dA*dA*dG*dT*dT*dG*dC*dA*dT*dG*dG*dT*dG*dC*dT*dG) [HBV44]	single peaks of activity	700	
GAGGCGGTGTCTAGGAGATC (antisense dG*dA*dG*dG*dC*dG*dG*dT*dG*dT*dC*dT*dA*dG*dG*dA*dG*dA*dT*dC) [HBV57]	single peaks of activity		
GATAGGGGCATTTGGTGGTC (phosphorothioate, further chemistry not given here) [HBVpol-2]		3700	had sequence-specific antisense activity
GCAGTATGGTGAGGTGAGCA (antisense dG*dC*dA*dG*dT*dA*dT*dG*dG*dT*dG*dA*dG*dG*dT*dG*dA*dG*dC*dA) [HBV41]	single peaks of activity		
GGCATTTGGTGGTCTATAAG (antisense dG*dG*dC*dA*dT*dT*dT*dG*dG*dT*dG*dG*dT*dC*dT*dA*dT*dA*dA*dG) [HBVpol-1]			had sequence-specific antisense activity
